Several values for one entry are separate records, joined by “and”; a condition that tells them apart may be missing. Identical values can stand only once.
What was measured:
Format in all cases: toxicity, cell-based
[1] = tested on: HEK-293T; assay: Incucyte cell viability with HEK293T; details: human, 10 µM, compound concentration 10 uM
[2] = tested on: Fibroblast; assay: Incucyte cell viability with human fibroblast; details: 10 µM, compound concentration 10 uM
[3] = tested on: U2OS; assay: Incucyte cell viability with U2OS; details: human, 10 µM, compound concentration 10 uM
Further: unitless GR value; below 1 slowed growth and below 0 cell loss.

Structure (SMILES)	Growth Rate ([1]; 6 h, replicate number 1)	Growth Rate ([1]; 18 h, replicate number 1)	Growth Rate ([1]; 18 h, replicate number 2)	Growth Rate ([1]; 24 h, replicate number 1)	Growth Rate ([2]; 0 h, replicate number 2)	Growth Rate ([2]; 12 h, replicate number 1)	Growth Rate ([2]; 18 h, replicate number 1)	Growth Rate ([2]; 24 h, replicate number 1)	Growth Rate ([3]; 0 h, replicate number 2)	Growth Rate ([3]; 6 h, replicate number 1)	Growth Rate ([3]; 12 h, replicate number 1)	Growth Rate ([3]; 12 h, replicate number 2)	Growth Rate ([3]; 18 h, replicate number 2)	Growth Rate ([3]; 24 h, replicate number 1)	Growth Rate ([3]; 24 h, replicate number 2)	Growth Rate ([1]; 6 h, replicate number 2)	Growth Rate ([1]; 12 h, replicate number 2)	Growth Rate ([1]; 24 h, replicate number 2)	Growth Rate ([2]; 12 h, replicate number 2)	Growth Rate ([1]; 12 h, replicate number 1)	further results
CN(C)C(=O)Cn1cc(-c2nc([C@@](C)(c3ccc(-c4cnc(N)nc4)cc3)C3CC3)no2)cn1 [BI 665915]	0.47	0.93	0.9	0.96	-0.12	0.51	0.71	0.6	0.28	0.55	0.68	0.87	0.99	0.95	0.88						Growth Rate ([1]; 0 h, replicate number 1): 0.53; Growth Rate ([2]; 0 h, replicate number 1): -1; Growth Rate ([2]; 6 h, replicate number 1): 0.2; Growth Rate ([2]; 18 h, replicate number 2): 0.97; Growth Rate ([3]; 6 h, replicate number 2): 0.71
CC[C@H](CC(=O)O)n1c(=O)c2ncccc2n(Cc2cn(C)c3cc(C)cc(C)c23)c1=O [BI-1942]		0.94	0.52		0	0.83 and 0.8	0.75 and 0.86	0.7 and 1	0.8	0.25 and 0.31	0.47 and 0.65	0.71 and 0.98	0.84	0.67 and 0.73	0.61	0.45	0.58	0.65	0.64 and 0.67		Growth Rate ([1]; 0 h, replicate number 1): 0.52; Growth Rate ([1]; 0 h, replicate number 2): -0.53; Growth Rate ([2]; 6 h, replicate number 1): 0.14; Growth Rate ([2]; 6 h, replicate number 2): 0.23 and 0.17; Growth Rate ([2]; 18 h, replicate number 2): 0.58; Growth Rate ([2]; 24 h, replicate number 2): 0.86 and 0.92; Growth Rate ([3]; 0 h, replicate number 1): 0.47 and 0.69; Growth Rate ([3]; 6 h, replicate number 2): 0.74; Growth Rate ([3]; 18 h, replicate number 1): 0.61 and 0.75
CC[C@@H]1C(=O)N(C)c2cnc(Nc3ccc(C(=O)NC4CCN(C)CC4)cc3OC)nc2N1C1CCCC1 [BI-2536]	0.45	-0.18		-0.17	-0.99		0.76	0.41	0.33		0.69	0.59	0.42	0.08	0.3	0.73	0.08	-0.18		-0.09	Growth Rate ([2]; 18 h, replicate number 2): 0.83; Growth Rate ([2]; 24 h, replicate number 2): 0.46; Growth Rate ([3]; 18 h, replicate number 1): 0.34
CN(C)C(=O)c1sc2nc(N3CCC(S(C)(=O)=O)CC3)cc(C(F)(F)F)c2c1N [BI-5026]	0.88 and 0.51	0.86 and 0.6	0.85	0.97 and 0.77	-0.94					0.38 and 0.65	0.88 and 0.68			0.88 and 0.97		0.65	0.99	0.98		0.83 and 0.56	Growth Rate ([1]; 0 h, replicate number 2): 0.24; Growth Rate ([2]; 0 h, replicate number 1): -1; Growth Rate ([3]; 18 h, replicate number 1): 0.84
Cc1nc2ccccc2c(-c2ccc3c4c(ccnc24)CCO3)c1[C@H](OC(C)(C)C)C(=O)O [BI-224436]									-0.37	0.57	0.77	0.72	0.85		0.75				0.76		Growth Rate ([1]; 0 h, replicate number 1): 0.67; Growth Rate ([1]; 0 h, replicate number 2): 0.86; Growth Rate ([3]; 6 h, replicate number 2): 0.42
CCC(F)(F)c1cc(N2CCC(S(C)(=O)=O)CC2)nc2sc(C(N)=O)c(N)c12 [BI-605906]	0.34 and 0.47	0.74 and 0.73	0.97 and 0.85	0.98	0.48	0.8	0.99	0.9 and 0.91		0.71		-0.82	0.92	0.96	0.9	0.83 and 0.48	0.72	0.91	0.85 and 0.57 and 0.87	0.79 and 0.84	Growth Rate ([1]; 0 h, replicate number 1): -0.07; Growth Rate ([2]; 0 h, replicate number 1): 0.11; Growth Rate ([2]; 6 h, replicate number 1): 0.8; Growth Rate ([2]; 6 h, replicate number 2): 0.76 and 0.88; Growth Rate ([2]; 24 h, replicate number 2): 0.97 and 0.94; Growth Rate ([3]; 18 h, replicate number 1): 0.91
COc1ccc(-c2coc3cc(O)cc(O)c3c2=O)cc1 [BIOCHANIN]	0.75		1		-0.65	-0.08	0.21		-0.91	1		0.77		0.95	0.93				0.69		Growth Rate ([1]; 0 h, replicate number 2): 0.93; Growth Rate ([2]; 0 h, replicate number 1): 0.87; Growth Rate ([2]; 6 h, replicate number 2): 0.58; Growth Rate ([2]; 24 h, replicate number 2): 0.94; Growth Rate ([3]; 0 h, replicate number 1): 0.85
CC[C@H](NC(=O)[C@H](C)NC)C(=O)N1C[C@@H](O)C[C@H]1Cc1c(-c2[nH]c3cc(F)ccc3c2C[C@@H]2C[C@H](O)CN2C(=O)[C@H](CC)NC(=O)[C@H](C)NC)[nH]c2cc(F)ccc12 [BIRINAPANT]	0.67	0.9			-0.61						0.81					0.87	0.97			0.62	Growth Rate ([2]; 0 h, replicate number 1): -0.44; Growth Rate ([3]; 0 h, replicate number 1): 0.94; Growth Rate ([3]; 18 h, replicate number 1): 0.98
CC(C)(c1ccc(O)cc1)c1ccc(O)cc1 [BISPHENOL A]	0.82					0.37		0.57				1			0.96				0.83		Growth Rate ([2]; 6 h, replicate number 2): -0.05; Growth Rate ([2]; 18 h, replicate number 2): 0.7
CC(C)(C)c1cnc(CSc2cnc(NC(=O)C3CCNCC3)s2)o1 [BMS-387032]	-0.41	-0.21	-0.48	-0.2	-0.8	0.11	0.32	0.23	0.54	0.69	0.45	0.05	0.04	0.05	-0.1	-0.76	-0.64	-0.37	-0.28	-0.29	Growth Rate ([2]; 0 h, replicate number 1): -1; Growth Rate ([2]; 6 h, replicate number 1): 0.49; Growth Rate ([2]; 6 h, replicate number 2): -0.1; Growth Rate ([2]; 18 h, replicate number 2): -0.23; Growth Rate ([2]; 24 h, replicate number 2): -0.26; Growth Rate ([3]; 0 h, replicate number 1): -1; Growth Rate ([3]; 6 h, replicate number 2): 0.29; Growth Rate ([3]; 18 h, replicate number 1): 0.27
CC(C)(O)c1cn(-c2ccc(-c3cccc(S(C)(=O)=O)c3)cc2)c(C(C)(C)c2ccccc2Cl)n1 [BMS-779788]		0.81	0.87	0.9		0.66	0.36	0.75	0.31			0.79	0.76		0.7	0.58	0.93	0.92	0.55	0.97	Growth Rate ([1]; 0 h, replicate number 1): -0.7; Growth Rate ([2]; 6 h, replicate number 1): -0.03; Growth Rate ([2]; 6 h, replicate number 2): 0.64; Growth Rate ([2]; 18 h, replicate number 2): 0.78; Growth Rate ([2]; 24 h, replicate number 2): 0.63; Growth Rate ([3]; 6 h, replicate number 2): 0.61
NS(=O)(=O)c1cncc(-c2nc(NCc3ccccn3)c3c(-c4ccccc4)cccc3n2)c1 [BMS-919373]	0.01	0.69	0.22	1	-0.92	-1	0.34		-0.7		0.98	0.71	0.59		0.63	0.33	0.24	0.26		0.64	Growth Rate ([3]; 0 h, replicate number 1): 0.72
Cc1c(-c2c(F)cc(C(N)=O)c3[nH]c4c(c23)CC[C@H](C(C)(C)O)C4)cccc1-n1c(=O)c2cccc(F)c2n(C)c1=O [BMS-986142]	-0.93	-0.43	-0.59	-0.25		0.08	0.54	0.8	0.95	0.26	0.52	0.67	0.66	0.49	0.73	-0.99	-0.83	-0.39	0.19	-0.7	Growth Rate ([2]; 0 h, replicate number 1): -1; Growth Rate ([2]; 6 h, replicate number 1): -0.27; Growth Rate ([2]; 6 h, replicate number 2): -0.9; Growth Rate ([2]; 18 h, replicate number 2): 0.73; Growth Rate ([2]; 24 h, replicate number 2): 1; Growth Rate ([3]; 0 h, replicate number 1): 0.59; Growth Rate ([3]; 6 h, replicate number 2): 0.48; Growth Rate ([3]; 18 h, replicate number 1): 0.59

Source: ChEMBL document CHEMBL5303304, “EUbOPEN Chemogenomics Library - IncuCyte” (2023)
